Measured values taken from US20250171430A1, “PYRAZOLYL COMPOUNDS AS KV7 CHANNEL ACTIVATORS” (Biohaven Therapeutics Ltd., priority 2022, published 2025).

target: T1, Kv7.2/7.3 (Homo sapiens, UniProt O43525+O43526); test: Kv7.2/7.3 Activation Assay (Thallium Flux Assay); assay type: cell-based; settings: hKV7.2/7.3 cell line; test compound at single concentration of 10 μM; fluorescence at 90 sec normalized to positive control (retigabine, 30 μM)
T1 construct: Kv7.2 tetracycline-induced, Kv7.3 constitutive
Source text: The Thallium Flux Assay is used as a surrogate indicator of potassium channel activity.
The experimental protocol was adapted from the FluxOR™ II Green Potassium Ion Channel Assay User Guide (Pub. No. MAN0016084, Invitrogen). Conditions were optimized for the Kv7.2/7.3 cell line.
Cell Line: The hKV7.2/7.3 cell line was obtained from Chantest (cat. #CT6147).
Cell Culture: Kv7.2/7.3 cells were maintained in a media containing DMEM/F12; 50/50 (Fisher 11-330), 10% Fetal Bovine Serum (FBS) (Fisher 26-140), 100 units/mL Penicillin-Streptomycin (Fisher 15-140), 0.005 mg/ml Blasticidin (InvivoGen ant-bl-1), 0.5 mg/mL Geneticin (InvivoGen ant-gn-5), and 0.1 mg/mL Zeocin (Fisher R25001). One day prior to experimentation, cells were plated in 96 well clear bottom plates (Corning cat. #353219) in a media without Blasticidin, Geneticin, or Zeocin. In this cell line Kv7.3 channel expression is controlled by a constitutive promoter. Kv7.2 channel expression was induced by adding tetracycline (Sigma T7660) at a final concentration of 10 ng/mL overnight in a cell culture incubator at 37° C. and 5% CO2. On the day of assay, the cell culture medium in the 96-well plates was replaced by assay buffer containing the thallium-sensitive fluorescent sensor, FluxOR II Green prepared according to manufacturer's instructions. The 96-well plates were then incubated for 1 h at 37° C. Following the incubation, the FluxOR II Green-containing solution was replaced with extracellular solution.
Test Compound Plates: The test compound is diluted in a mixture of 0.1% DMSO/extracellular solution at a single concentration of 10 μM. Dilutions were made on a Biomek NXP (BECKMAN COULTER). Extracellular solution contained (in mM: 145 NaCl, 4 KCl, 2 CaCl2), 1 MgCl2, 10 HEPES, and 10 Glucose, pH 7.4).
Measurement and data analysis: Thallium-flux-mediated changes in intracellular fluorescence were made using a plate reader (Enspire, Perkin Elmer) set with an excitation wavelength of 475 nm and an emission wavelength of 530 nm. After a 15 sec baseline measurement, the stimulus buffer containing thallium and potassium was added to the 96-well plate containing FluxOR II Green-loaded cells and test compounds. Fluorescence values at 90 sec were normalized to the positive control (retigabine, 30 μM) and test compound activities were assigned categories according to the formula: “No Activity <0.15, “+” Moderate Activity 0.15-0.7, and “++” High Activity >0.7.

Compound | Kv7.2/7.3 Activity
Cn1nc(NC(=O)C(C2CC2)C2CC2)c(C2CCC2)c1-c1ccc(F)cc1 [Compound 196, N-(4-cyclobutyl-5-(4-fluorophenyl)-1-methyl-1H-pyrazol-3-yl)-2,2-dicyclopropylacetamide] | + (“+” Moderate Activity 0.15-0.7)
Cn1nc(NC(=O)CC2CC(F)(F)C2)c(C2CCC2)c1C1CCCCC1 [Compound 70, N-(4-cyclobutyl-5-cyclohexyl-1-methyl-1H-pyrazol-3-yl)-2-(3,3-difluorocyclobutyl)acetamide] | ++ (“++” High Activity ≥ 0.7)
Cn1nc(NC(=O)C2(C(F)(F)F)CCC2)c(C2CCC2)c1-c1ccc(F)cc1 [Compound 124, N-(4-cyclobutyl-5-(4-fluorophenyl)-1-methyl-1H-pyrazol-3-yl)-1-(trifluoromethyl)cyclobutane-1-carboxamide] | + (“+” Moderate Activity 0.15-0.7)
O=C(Nc1nn(CC(F)(F)F)c(-c2ccc(F)cc2)c1C1CCC1)C1(C(F)(F)F)CC1 [Compound 169, N-(4-cyclobutyl-5-(4-fluorophenyl)-1-(2,2,2-trifluoroethyl)-1H-pyrazol-3-yl)-1-(trifluoromethyl)cyclopropane-1-carboxamide] | + (“+” Moderate Activity 0.15-0.7)
Cn1nc(NC(=O)NCC(C)(C)C)c(C2CCC2)c1C1CC(F)(F)C1 [Compound 294, 1-(4-cyclobutyl-5-(3,3-difluorocyclobutyl)-1-methyl-1H-pyrazol-3-yl)-3-neopentylurea] | ++ (“++” High Activity ≥ 0.7)
Cn1nc(NC(=O)CC2(C(F)(F)F)CC2)c(C2CCC2)c1-c1ccc(C(F)(F)F)cn1 [Compound 36, N-(4-cyclobutyl-1-methyl-5-(5-(trifluoromethyl)pyridin-2-yl)-1H-pyrazol-3-yl)-2-(1-(trifluoromethyl)cyclopropyl)acetamide] | − (“−” No Activity < 0.15)
Cn1nc(NC(=O)C[C@@H]2CC(F)(F)C2(F)F)c(C2CCC2)c1-c1ccc(F)c(F)c1 [Compound 235, (R)-N-(4-cyclobutyl-5-(3,4-difluorophenyl)-1-methyl-1H-pyrazol-3-yl)-2-(2,2,3,3-tetrafluorocyclobutyl)acetamide] | ++ (“++” High Activity ≥ 0.7)
Cn1nc(NC(=O)[C@H]2C[C@]2(C)C(F)(F)F)c(C2CCC2)c1-c1ccc(F)cc1 [Compound 144, (1S,2S)-N-(4-cyclobutyl-5-(4-fluorophenyl)-1-methyl-1H-pyrazol-3-yl)-2-methyl-2-(trifluoromethyl)cyclopropane-1-carboxamide] | ++ (“++” High Activity ≥ 0.7)
CCO[C@@H](CC(=O)Nc1nn(C)c(-c2ccc(F)c(F)c2)c1C1CCC1)C(F)(F)F [Compound 214, (S)-N-(4-cyclobutyl-5-(3,4-difluorophenyl)-1-methyl-1H-pyrazol-3-yl)-3-ethoxy-4,4,4-trifluorobutanamide] | ++ (“++” High Activity ≥ 0.7)
Cn1nc(NC(=O)C2CSC2)c(C2CCC2)c1-c1ccc(Cl)s1 [Compound 248, N-(5-(5-chlorothiophen-2-yl)-4-cyclobutyl-1-methyl-1H-pyrazol-3-yl)thietane-3-carboxamide] | ++ (“++” High Activity ≥ 0.7)
Cn1nc(NC(=O)C[C@H]2CC(F)(F)C2(F)F)c(C2CCC2)c1-c1ccc(C(F)(F)F)cn1 [Compound 35, (S)-N-(4-cyclobutyl-1-methyl-5-(5-(trifluoromethyl)pyridin-2-yl)-1H-pyrazol-3-yl)-2-(2,2,3,3-tetrafluorocyclobutyl)acetamide] | + (“+” Moderate Activity 0.15-0.7)
Cn1nc(NC(=O)CC(C)(C)C(F)(F)F)c(C2CCC2)c1-c1ccc(F)cc1F [Compound 97, N-(4-cyclobutyl-5-(2,4-difluorophenyl)-1-methyl-1H-pyrazol-3-yl)-4,4,4-trifluoro-3,3-dimethylbutanamide] | ++ (“++” High Activity ≥ 0.7)
Cn1nc(NC(=O)C(F)(F)C(C)(O)c2ccccc2)c(C2CCC2)c1-c1ccc(F)cc1 (centres unmarked) [Compound 117, N-(4-cyclobutyl-5-(4-fluorophenyl)-1-methyl-1H-pyrazol-3-yl)-2,2-difluoro-3-hydroxy-3-phenylbutanamide] | ++ (“++” High Activity ≥ 0.7)
Cn1nc(NC(=O)[C@@H]2CC2(F)F)c(C2CCC2)c1-c1ccc(F)cc1 [Compound 134, (S)-N-(4-cyclobutyl-5-(4-fluorophenyl)-1-methyl-1H-pyrazol-3-yl)-2,2-difluorocyclopropane-1-carboxamide] | − (“−” No Activity < 0.15)
Cc1cccc(-c2c(NC(=O)C3CC(F)(F)C3)nn(C)c2C2CC(F)(F)C2)c1 [Compound 271, N-(5-(3,3-difluorocyclobutyl)-1-methyl-4-(m-tolyl)-1H-pyrazol-3-yl)-3,3-difluorocyclobutane-1-carboxamide] | + (“+” Moderate Activity 0.15-0.7)

Second part, the molecule after the results:

Kv7.2/7.3 Activity | Compound
+ (“+” Moderate Activity 0.15-0.7) | Cn1nc(NC(=O)C[C@@H]2CC(F)(F)C2(F)F)c(C2CCC2)c1-c1cccc(C(C)(C)O)c1 [Compound 47, (R)-N-(4-cyclobutyl-5-(3-(2-hydroxypropan-2-yl)phenyl)-1-methyl-1H-pyrazol-3-yl)-2-(2,2,3,3-tetrafluorocyclobutyl)acetamide]
++ (“++” High Activity ≥ 0.7) | Cn1nc(NC(=O)CC(C(F)(F)F)C(F)(F)F)c(C2CCC2)c1-c1ccc(OC(F)(F)F)cc1 [Compound 180, N-(4-cyclobutyl-1-methyl-5-(4-(trifluoromethoxy)phenyl)-1H-pyrazol-3-yl)-4,4,4-trifluoro-3-(trifluoromethyl)butanamide]
++ (“++” High Activity ≥ 0.7) | Cn1nc(NC(=O)C2CC(F)(F)C2)c(C2CCC2)c1-c1cc(F)c(F)c(F)c1 [Compound 261, N-(4-cyclobutyl-1-methyl-5-(3,4,5-trifluorophenyl)-1H-pyrazol-3-yl)-3,3-difluorocyclobutane-1-carboxamide]
++ (“++” High Activity ≥ 0.7) | Cn1nc(NC(=O)CC2(C(F)(F)F)CC2)c(C2CCC2)c1CC1CC1 [Compound 79, N-(4-cyclobutyl-5-(cyclopropylmethyl)-1-methyl-1H-pyrazol-3-yl)-2-(1-(trifluoromethyl)cyclopropyl)acetamide]
++ (“++” High Activity ≥ 0.7) | Cn1nc(NC(=O)CC2CC(F)(F)C2)c(C2CCC2)c1-c1cc(F)c(F)c(F)c1 [Compound 264, N-(4-cyclobutyl-1-methyl-5-(3,4,5-trifluorophenyl)-1H-pyrazol-3-yl)-2-(3,3-difluorocyclobutyl)acetamide]
+ (“+” Moderate Activity 0.15-0.7) | Cn1nc(NC(=O)CC(C)(C)C2CC2)c(C2CC(F)(F)C2)c1-c1ccc(OC(F)(F)F)cc1 [Compound 43, 3-cyclopropyl-N-(4-(3,3-difluorocyclobutyl)-1-methyl-5-(4-(trifluoromethoxy)phenyl)-1H-pyrazol-3-yl)-3-methylbutanamide]
++ (“++” High Activity ≥ 0.7) | Cn1nc(NC(=O)CC2(C(F)(F)F)CC2)c(C2CCC2)c1-c1ccc(F)cc1F [Compound 107, N-(4-cyclobutyl-5-(2,4-difluorophenyl)-1-methyl-1H-pyrazol-3-yl)-2-(1-(trifluoromethyl)cyclopropyl)acetamide]
++ (“++” High Activity ≥ 0.7) | Cn1nc(NC(=O)CC(C)(C)C(F)(F)F)c(C2CCC2)c1C1CCCCC1 [Compound 68, N-(4-cyclobutyl-5-cyclohexyl-1-methyl-1H-pyrazol-3-yl)-4,4,4-trifluoro-3,3-dimethylbutanamide]
++ (“++” High Activity ≥ 0.7) | Cn1nc(NC(=O)C2(C(F)(F)F)CC2)c(C2CCC2)c1-c1cccc(F)c1 [Compound 166, N-(4-cyclobutyl-5-(3-fluorophenyl)-1-methyl-1H-pyrazol-3-yl)-1-(trifluoromethyl)cyclopropane-1-carboxamide]
++ (“++” High Activity ≥ 0.7) | Cn1nc(NC(=O)C2CC(F)(F)C2)c(C2CCC2)c1-c1ccc(F)c(F)c1 [Compound 192, N-(4-cyclobutyl-5-(3,4-difluorophenyl)-1-methyl-1H-pyrazol-3-yl)-3,3-difluorocyclobutane-1-carboxamide]
++ (“++” High Activity ≥ 0.7) | Cn1nc(NC(=O)C[C@H]2CC2(C)C)c(C2CCC2)c1-c1ccc(F)cc1 [Compound 100, (R)-N-(4-cyclobutyl-5-(4-fluorophenyl)-1-methyl-1H-pyrazol-3-yl)-2-(2,2-dimethylcyclopropyl)acetamide]
